Consider 11 compounds from ChEMBL document CHEMBL1201862, “PubChem BioAssay data set” (2004).

Among the test systems are A549; ACHN; CCRF-CEM; HL-60; HOP-92; KM12; LXFL 529; NCI-H23; NCI-H460; OVCAR-3; OVCAR-5; SF-539; SK-OV-3; SN12C; SNB-19; SR; SW-620; MCF7; NCI/ADR-RES; T47D.
Common to all, as to experiment: inhibition of tumour cell growth, NCI panel, 48 h

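Dose response: 5 concentrations. Exposure: 48 h. Format: 96-well plates. Endpoint: linear interpolation; highest concentration if not reached. The concentration for 50% growth inhibition is given as GI50.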 Calls of active or inactive are those of the source. Rule as the data show it: active = GI50 up to about 1.1 µM and inactive = higher.

On to `CC1(C2CCC3(C)OC3C2)CO1` (stereo unspecified), for which the GI50 in the test with A549, in the test with ACHN, in the test on CCRF-CEM, in the test with HL-60, in the test with HOP-92 and with KM12 was > 100 µM (inactive) throughout. The GI50 with LXFL 529, in the test on NCI-H23, with NCI-H460, in the test on OVCAR-3, with OVCAR-5 and in the test on SF-539 was > 100 µM (inactive) in each case. The GI50 in the test with SK-OV-3, with SN12C, with SNB-19, in the test on SR and in the test with SW-620 was > 100 µM (inactive) each time.
Consider `COC(=O)[C@H]1C=C[C@@H](C)n2c(=O)c3cc4ccccc4cc3c(=O)n21`, for which the GI50 in the test with A549, with ACHN, in the test with CCRF-CEM, in the test with HL-60, in the test with HOP-92 and in the test on KM12 was > 100 µM (inactive) throughout. The GI50 with LXFL 529, in the test with NCI-H23, in the test with NCI-H460, in the test with OVCAR-3, with OVCAR-5 and in the test on SF-539 was > 100 µM (inactive) in each case. Further, the GI50 in the test on SK-OV-3, in the test on SN12C, with SNB-19, in the test with SR and with SW-620 was > 100 µM (inactive) in each case.
With `COc1ccc2ccccc2c1CN1CCOCCOCCN(Cc2c(OC)ccc3ccccc23)CCOCCOCC1`, the GI50 in the test with A549 is 98.2 µM (inactive); with ACHN it was > 100 µM (inactive); in the test on CCRF-CEM, > 39.1 µM (inactive); in the test on HL-60, 32 µM (inactive); in the test on HOP-92 it was > 27.9 µM (inactive); with KM12, > 41.7 µM (inactive). Further, the GI50 in the test with LXFL 529 was > 89.9 µM (inactive); in the test on NCI-H23 it was > 75.3 µM (inactive); in the test on NCI-H460, 25.4 µM (inactive); in the test on OVCAR-3, 16.7 µM (inactive); in the test with OVCAR-5 it was > 100 µM (inactive); with SF-539, > 45.3 µM (inactive). Moreover, the GI50 in the test with SK-OV-3 was > 100 µM (inactive); in the test on SN12C, > 69.8 µM (inactive); in the test with SNB-19, > 100 µM (inactive); with SR, 0.514 µM (active); with SW-620, > 62.1 µM (inactive).
As for `CC(C)N(C(=O)C12C3C4C5(C(=O)O)C(C1C35I)C42C(=O)O)C(C)C` (stereo unspecified), the GI50 in the test with A549, in the test on ACHN, in the test with CCRF-CEM, in the test with HL-60, in the test on HOP-92 and in the test on KM12 was > 100 µM (inactive) in each case. Besides, the GI50 in the test on LXFL 529, in the test with NCI-H23, in the test on NCI-H460, with OVCAR-3, with OVCAR-5 and in the test on SF-539 was > 100 µM (inactive) throughout. Also, the GI50 in the test with SK-OV-3, in the test on SN12C, in the test with SNB-19, with SR and in the test with SW-620 was > 100 µM (inactive) each time.
Consider `O=C(/C=C/c1ccc([N+](=O)[O-])cc1)c1ccc(NCc2nc3ccccc3[nH]2)cc1`, for which the GI50 in the test on ACHN is 10.5 µM (inactive); in the test with CCRF-CEM, 1.57 µM (inactive); in the test on HL-60 it was 1.6 µM (inactive); in the test on HOP-92 it was 8.57 µM (inactive); with KM12 it was 1.78 µM (inactive); in the test with LXFL 529, 2.9 µM (inactive). Besides, the GI50 in the test on NCI-H23 was 3.75 µM (inactive); in the test on NCI-H460, 2.22 µM (inactive); in the test with OVCAR-3 it was 3.09 µM (inactive); in the test on OVCAR-5, 13.5 µM (inactive); in the test with SF-539, 2.84 µM (inactive); in the test on SK-OV-3, 13.6 µM (inactive). Moreover, the GI50 in the test with SN12C is 2.96 µM (inactive); in the test with SNB-19 it was 3.56 µM (inactive); in the test with SR, 3.34 µM (inactive); in the test with SW-620 it was 2.25 µM (inactive).
Regarding `O=C1/C(=C/c2ccccc2)CN(C(=O)CCN2CCCC2)C/C1=C\c1ccccc1`, the GI50 in the test with A549 was 3.91 µM (inactive); with ACHN, 1.98 µM (inactive); in the test with CCRF-CEM, 0.286 µM (active); in the test with HL-60, 0.298 µM (active); with HOP-92, 4.44 µM (inactive); with KM12 it was 0.607 µM (active). Further, the GI50 in the test on LXFL 529 was 1.72 µM (inactive); with MCF7 it was 0.64 µM (active); in the test on NCI-H23, 1.8 µM (inactive); in the test on NCI-H460 it was 1.77 µM (inactive); in the test on NCI/ADR-RES it was 0.27 µM (active); in the test on OVCAR-3, 2.08 µM (inactive). Besides, the GI50 is 3.16 µM (inactive) in the test on OVCAR-5; 1.85 µM (inactive) with SF-539; 8.26 µM (inactive) in the test on SK-OV-3; 1.51 µM (inactive) in the test on SN12C; 2.51 µM (inactive) in the test with SNB-19; 0.219 µM (active) with SR. The GI50 in the test with SW-620 is 0.23 µM (active); in the test on T47D it was 1.76 µM (inactive).
In the case of `COC(=O)C1=C(c2cc(OC)c(OC)c(OC)c2)OC(c2ccc(OC)c(OC)c2)C1` (stereo unspecified), the GI50 with A549 was 46.8 µM (inactive); in the test with ACHN, 51.2 µM (inactive); with CCRF-CEM, 60.1 µM (inactive); in the test with HL-60, 27.4 µM (inactive); in the test on HOP-92, 42.5 µM (inactive); in the test on KM12, 29.2 µM (inactive). Further, the GI50 in the test on LXFL 529 is 26.5 µM (inactive); in the test with NCI-H23, 78.2 µM (inactive); in the test on NCI-H460, 39.5 µM (inactive); in the test with OVCAR-3 it was 38.6 µM (inactive); with OVCAR-5 it was > 100 µM (inactive); in the test with SF-539 it was 42.9 µM (inactive). The GI50 is 40.5 µM (inactive) in the test with SK-OV-3, 51.6 µM (inactive) with SN12C, 51.6 µM (inactive) with SR and 33.5 µM (inactive) in the test on SW-620.
`CCC(=S)N(C)O`: the GI50 with A549 is 20.3 µM (inactive); with ACHN, 35.2 µM (inactive); with CCRF-CEM, 0.459 µM (active); in the test with HL-60, 1.48 µM (inactive); in the test with HOP-92 it was > 85.9 µM (inactive); in the test on KM12, 25 µM (inactive). In addition, the GI50 is 0.499 µM (active) with LXFL 529; 3.71 µM (inactive) in the test on MCF7; 10.1 µM (inactive) with NCI-H23; 10.1 µM (inactive) in the test on NCI-H460; 17.1 µM (inactive) in the test with NCI/ADR-RES; 3.08 µM (inactive) with OVCAR-3. In addition, the GI50 in the test on OVCAR-5 is 45.1 µM (inactive); in the test on SF-539, 39.3 µM (inactive); in the test on SK-OV-3, 76.9 µM (inactive); with SN12C it was 22 µM (inactive); in the test with SNB-19, 63.5 µM (inactive); in the test on SR, 1.02 µM (active). Also, the GI50 is 4.09 µM (inactive) in the test on SW-620 and 46.1 µM (inactive) with T47D.
As to `Oc1ccc2ccccc2c1/N=N/c1ccsc1`, the GI50 in the test on A549 is > 100 µM (inactive); in the test with ACHN, > 100 µM (inactive); with CCRF-CEM, 83.8 µM (inactive); in the test with HL-60 it was 73.8 µM (inactive); with HOP-92, > 100 µM (inactive); with KM12 it was 24.9 µM (inactive). Besides, the GI50 with LXFL 529, with NCI-H23, with NCI-H460, with OVCAR-3, in the test with OVCAR-5 and in the test with SF-539 was > 100 µM (inactive) each time. For the same compound, the GI50 in the test on SK-OV-3, with SN12C, in the test with SNB-19, in the test with SR and with SW-620 was > 100 µM (inactive) each time.
For `CN(C)NC(=O)NC12CC3CC(CC(C3)C1)C2`, the GI50 with A549, with ACHN, in the test with CCRF-CEM, in the test on HL-60, in the test on HOP-92 and in the test on KM12 was > 100 µM (inactive) throughout. Also, the GI50 with LXFL 529, with NCI-H23, in the test on NCI-H460, in the test with OVCAR-5, in the test on SF-539 and in the test with SK-OV-3 was > 100 µM (inactive) throughout. Also, the GI50 in the test on SN12C, in the test on SNB-19, in the test with SR and in the test on SW-620 was > 100 µM (inactive) throughout.
For the compound `COc1cccc2c1C(=O)c1c(O)c3c(c(O)c1C2=O)CC(O)(C(O)CO)CC3OC1CC(N2CCOCC2)C(O)C(C)O1` (stereo unspecified), the GI50 in the test with A549 is 0.00108 µM (active); in the test on ACHN, 0.00193 µM (active); in the test with CCRF-CEM, 0.00849 µM (active); in the test with HOP-92 it was 0.065 µM (active); in the test with KM12, 0.00551 µM (active); in the test with LXFL 529, 0.0124 µM (active). The GI50 in the test on MCF7 is 0.0223 µM (active); with NCI-H23, 0.00464 µM (active); in the test on NCI-H460, < 0.001 µM (active); in the test with NCI/ADR-RES, 0.0162 µM (active); in the test with OVCAR-3 it was 0.0023 µM (active); in the test on OVCAR-5 it was 0.00475 µM (active). Further, the GI50 with SF-539 is 0.0043 µM (active); in the test on SK-OV-3 it was 0.00362 µM (active); in the test on SN12C, 0.00205 µM (active); in the test with SNB-19, 0.00404 µM (active); with SR, 0.00214 µM (active); with SW-620, 0.00144 µM (active).
